Source: US7776903B2, “Pharmaceutical preparations containing substituted 2,5-diaminomethyl-1H-pyrroles” (priority 2002, dated 2010)
Read-outs that look alike come from different tables or passages of the source.

Columns and labels:
[1] = biological target: T1, NA transporter (Rattus norvegicus, UniProt Q63380); assay: Noradrenalin uptake inhibition in rat brain synaptosomes (hypothalamus); format: biochemical; details: conc. 10 (unit not given), [3H]-NA, 7.5 minutes
T1 construct: Synaptosomes from rat brain regions were freshly isolated; from tissue; host or cells: rat brain synaptosomes (hypothalamus)
T1 sequence (Q63380 1-617): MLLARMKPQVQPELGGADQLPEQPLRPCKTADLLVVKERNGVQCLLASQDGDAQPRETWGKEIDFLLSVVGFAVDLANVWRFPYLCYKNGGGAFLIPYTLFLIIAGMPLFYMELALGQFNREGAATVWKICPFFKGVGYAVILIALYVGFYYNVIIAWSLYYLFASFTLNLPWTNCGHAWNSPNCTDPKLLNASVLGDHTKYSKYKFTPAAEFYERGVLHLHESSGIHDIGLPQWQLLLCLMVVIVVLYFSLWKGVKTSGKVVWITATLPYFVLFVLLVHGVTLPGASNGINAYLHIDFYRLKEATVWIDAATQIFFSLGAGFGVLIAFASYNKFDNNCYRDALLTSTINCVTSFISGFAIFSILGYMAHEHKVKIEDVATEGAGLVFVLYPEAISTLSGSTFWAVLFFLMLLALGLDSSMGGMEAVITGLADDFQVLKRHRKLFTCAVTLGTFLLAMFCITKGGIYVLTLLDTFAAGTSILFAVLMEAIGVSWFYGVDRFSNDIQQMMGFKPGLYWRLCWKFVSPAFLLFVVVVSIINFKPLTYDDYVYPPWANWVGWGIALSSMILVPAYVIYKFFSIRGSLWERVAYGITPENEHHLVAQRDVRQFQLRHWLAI
From the text: (§1) c) Method for Determining Noradrenalin and the 5-HT Uptake Inhibition:
(§2) Synaptosomes from rat brain regions were freshly isolated for in vitro studies, as described in the publication “The isolation of nerve endings from brain” by E. G. Gray and V. P. Whittaker, J. Anatomy 96, pages 79-88, 1962. The corresponding literature description is hereby introduced as a reference and is deemed to be part of the disclosure.
(§3) The tissue (hypothalamus for the determination of noradrenalin uptake inhibition and medulla and pons for the determination of 5-HT uptake inhibition) was homogenised in ice-cooled 0.32 M sucrose (100 mg of tissue/1 mL) in a glass homogeniser with teflon pestle using five complete up and down strokes at 840 revolutions/minute.
(§4) The homogenate was centrifuged at 4° C. for 10 minutes at 1000 g. After subsequent centrifugation at 17000 g for 55 minutes, the synaptosomes (P2 fraction) were obtained, which were resuspended in 0.32 M glucose (0.5 mL/100 mg of original weight).
(§5) The particular uptake was measured in a 96-well microtitre plate. The volume was 250 μl and the incubation proceeded at room temperature (approx. 20-25° C.) under an O2 atmosphere.
(§6) The incubation time was 7.5 minutes for [^3H]-NA and 5 minutes for [^3H]-5-HT. The 96 samples were then filtered through a Unifilter GF/B® microtitre plate (Packard) and washed with […] of incubated buffer using a “Brabdel MPXR1-96T Cell-Harvester”. The Unifilter GF/B plate was dried for 1 hour at 55° C. The plate was then sealed with a Back seal® (Packard) and 35 μl of scintillation fluid were added per well (Ultima gold®, Packard). After sealing with a top seal® (Packard) and establishment of equilibrium (around 5 hours), radioactivity was determined in a “Trilux 1450 Microbeta” (Wallac).
The following characteristics were determined for the NA transporter: NA uptake: Km=0.32±0.11 μM
(§7) The quantity of protein used in the above determination corresponded to the values known from the literature, as for example described in “Protein measurement with the folin phenol reagent”, Lowry et al., J. Biol. Chem., 193, 265-275, 1951. A detailed description of the method may also be found in the literature, for example in M. Ch. Frink, H.-H. Hennies, W. Engelberger, M. Haurand and B. Wilffert (1996) Arzneim.-Forsch./Drug Res. 46 (III), 11, 1029-1036. The corresponding literature descriptions are hereby introduced as a reference and are deemed to be part of the disclosure.

[2] = biological target: T2, 5-HT uptake (Rattus norvegicus, UniProt P31652); assay: 5-HT uptake inhibition in rat brain synaptosomes (medulla and pons); format: biochemical; details: conc. 10 (unit not given), [3H]-5-HT, 5 minutes
T2 construct: Synaptosomes from rat brain regions were freshly isolated; from tissue; host or cells: rat brain synaptosomes (medulla and pons)
T2 sequence (P31652 whole entry): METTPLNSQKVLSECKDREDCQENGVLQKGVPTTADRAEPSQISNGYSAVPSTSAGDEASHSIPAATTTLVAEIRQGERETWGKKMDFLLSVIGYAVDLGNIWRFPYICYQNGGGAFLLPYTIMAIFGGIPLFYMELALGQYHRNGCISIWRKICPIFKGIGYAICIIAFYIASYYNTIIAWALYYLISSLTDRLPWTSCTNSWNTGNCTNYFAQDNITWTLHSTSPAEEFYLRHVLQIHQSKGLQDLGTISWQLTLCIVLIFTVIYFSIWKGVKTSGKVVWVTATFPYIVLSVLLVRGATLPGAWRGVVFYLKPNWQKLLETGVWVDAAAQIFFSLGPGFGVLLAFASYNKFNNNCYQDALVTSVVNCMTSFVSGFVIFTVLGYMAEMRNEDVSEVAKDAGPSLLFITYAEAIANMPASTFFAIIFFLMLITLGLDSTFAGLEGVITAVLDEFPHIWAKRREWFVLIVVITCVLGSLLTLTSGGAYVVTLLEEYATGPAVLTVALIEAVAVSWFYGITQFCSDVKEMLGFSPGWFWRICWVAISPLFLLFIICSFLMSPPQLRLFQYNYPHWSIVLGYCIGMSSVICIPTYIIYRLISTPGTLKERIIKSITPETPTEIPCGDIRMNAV
From the text: as §1, §2, §3, §4, §5, §6, §7

[3] = biological target: human μ opiate receptor (Homo sapiens, UniProt P35372); assay: Human μ opiate receptor binding assay with [3H]-naloxone, CHO-K1 membrane preparation; details: for inhibition at 1 µM: read-out: Human ORm Nal inhibition [%]
human μ opiate receptor, sequence (P35372 whole entry): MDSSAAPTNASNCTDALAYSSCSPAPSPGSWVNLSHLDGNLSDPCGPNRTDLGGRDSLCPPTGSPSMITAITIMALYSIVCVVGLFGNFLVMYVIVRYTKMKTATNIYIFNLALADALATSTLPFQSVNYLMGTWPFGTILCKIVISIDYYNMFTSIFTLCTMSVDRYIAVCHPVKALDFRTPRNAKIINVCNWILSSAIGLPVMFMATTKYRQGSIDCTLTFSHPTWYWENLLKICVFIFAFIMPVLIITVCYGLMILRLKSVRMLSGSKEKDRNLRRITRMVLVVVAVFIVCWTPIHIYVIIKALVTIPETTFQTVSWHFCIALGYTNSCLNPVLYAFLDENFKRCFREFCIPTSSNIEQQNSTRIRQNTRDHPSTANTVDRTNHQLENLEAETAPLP
Procedure: b) Method for Determining Affinity for the Human μ opiate receptor
Receptor affinity for the human μ opiate receptor is determined in a homogeneous batch in microtitre plates. To this end, dilution series of the particular substituted 2,5-diaminomethyl-1H-pyrrole to be tested were incubated at room temperature for 90 minutes in a total volume of 250 μl with a receptor membrane preparation (15-40 μg of protein per 250 μl of incubation batch) of CHO-K1 cells, which express the human μ opiate receptor (RB-HOM receptor membrane preparation from NEN, Zaventem, Belgium) in the presence of 1 nmol/l of the radioactive ligand [^3H]-naloxone (NET719, from NEN, Zaventem, Belgium) and of 1 mg of WGA-SPA beads (wheat germ agglutinin SPA beads from Amersham/Pharmacia, Freiburg, Germany). The incubation buffer used is 50 mmol/l tris-HCl supplemented with 0.05 wt. % of sodium azide and with 0.06 wt. % of bovine serum albumin. 25 μmol/l of naloxone were additionally added to determine nonspecific binding. Once the ninety minute incubation time had elapsed, the microtitre plates were centrifuged off for 20 minutes at 1000 g and the radioactivity measured in a β-Counter (Microbeta-Trilux, from PerkinElmer Wallac, Freiburg, Germany. The percentage displacement of the radioactive ligand from its binding to the human μ opiate receptor was determined at a concentration of the substances to be tested of 1 μmol/l and stated as percentage inhibition of specific binding. On the basis of the percentage displacement by different concentrations of the compounds to be tested of the general formula I, IC50 inhibition concentrations which bring about 50% displacement of the radioactive ligand were calculated. Ki values for the test substances were obtained by conversion using the Cheng-Prusoff equation.

[4] = biological target: T3, ORL-1 receptor (Homo sapiens, UniProt P41146); assay: ORL-1 receptor binding assay with 3H-nociceptin/Orphanin FQ, membranes of recombinant CHO-ORL1 cells; details: 3H-nociceptin/Orphanin FQ 0.5 nM
T3 construct: expressed in transfected cells; host or cells: CHO (CHO-ORL1)
T3 sequence (P41146 whole entry): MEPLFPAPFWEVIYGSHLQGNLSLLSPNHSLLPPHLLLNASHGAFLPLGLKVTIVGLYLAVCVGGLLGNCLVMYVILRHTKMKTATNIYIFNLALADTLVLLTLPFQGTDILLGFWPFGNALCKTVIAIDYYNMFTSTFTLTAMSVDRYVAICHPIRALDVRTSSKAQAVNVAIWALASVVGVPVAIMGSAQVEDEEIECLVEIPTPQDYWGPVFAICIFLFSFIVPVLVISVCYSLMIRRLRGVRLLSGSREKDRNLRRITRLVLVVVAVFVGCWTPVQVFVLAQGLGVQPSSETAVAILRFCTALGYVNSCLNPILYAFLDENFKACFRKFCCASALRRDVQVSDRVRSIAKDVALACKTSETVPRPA
Procedure: a) Method for Determining Affinity for the ORL-1 Receptor
The affinity of the particular substituted 2,5-diaminomethyl-1H-pyrrole of the general formula I for the ORL-1 receptor was determined in a receptor binding assay with ^3H-nociceptin/Orphanin FQ with membranes of recombinant CHO-ORL1 cells, as described by Ardati et al. in Mol. Pharmacol., 51, 1997, pages 816-824. The corresponding literature description is hereby introduced as a reference and is deemed to be part of the disclosure.
The concentration of ^3H-nociceptin/Orphanin FQ in these tests was 0.5 nM. The binding assays were in each case performed with 20 μg of membrane protein per 200 μl batch in 50 mM Hepes, pH 7.4, 10 mM MgCl2 and 1 mM EDTA. Binding to the ORL1 receptor was determined using 1 mg portions of WGA-SPA Beads (Amersham-Pharmacia, Freiburg, Germany), by one hour's incubation of the batch at room temperature (approx. 20-25° C.) and subsequent measurement in a Trilux scintillation counter (Wallac, Finland).

[5] = [3H]-naloxone, from IC50 by Cheng-Prusoff equation, read-out: Human ORm Nal Ki

Row | SMILES | Rat noradrenalin uptake inhibition [%], conc. 10 [1] | Rat 5-HT uptake inhibition [%] conc. 10 [2] | inhibition at 1 µM [3] | Ki [3, 5] | Ki [4] | Human ORL1 inhibition [%] ([4]; test concentration not given) | Ki [3]
1 | COc1ccccc1C(c1ccc(CN2CCCCC2)n1C)N(C)C.Cl.Cl (stereo not shown) [Example 1, [(2-Methoxyphenyl)-(1-methyl-5-piperidin-1-ylmethyl-1H-pyrrol-2-yl)-methyl]-dimethyl-amine dihydrochloride] | 63% | 77% |  |  |  |  | 
2 | COc1ccccc1C(c1ccc(CN2CCCC2)n1C)N(C)C.Cl.Cl (stereo not shown) [Example 2, [(2-Methoxyphenyl)-(1-methyl-5-pyrrolidin-1-ylmethyl-1H-pyrrol-2-yl)-methyl]-dimethyl-amine dihydrochloride] | 65% | 76% | 25% |  |  |  | 
3 | Cc1ccccc1C(c1ccc(CN2CCCCC2)n1C)N(C)C.Cl.Cl (stereo not shown) [Example 3, Dimethyl-[(1-methyl-5-piperidin-1-ylmethyl-1H-pyrrol-2-yl)-o-tolyl-methyl]-amine dihydrochloride] |  | 30% |  |  |  |  | 
4 | CN(C)C(c1ccccc1Br)c1ccc(CN2CCCCC2)n1C.Cl.Cl (stereo not shown) [Example 4, [(2-Bromo-phenyl)-(1-methyl-5-piperidin-1-ylmethyl-1H-pyrrol-2-yl)-methyl]-dimethyl-amine dihydrochloride] |  | 57% |  |  |  |  | 
5 | CN(C)C(c1ccc(Br)cc1)c1ccc(CN2CCCCC2)n1C.Cl.Cl (stereo not shown) [Example 5, [(4-Bromo-phenyl)-(1-methyl-5-piperidin-1-ylmethyl-1H-pyrrol-2-yl)-methyl]-dimethyl-amine dihydrochloride] | 91% | 39% | 52% | 860 nM |  |  | 
6 | CN(C)C(c1ccc(F)cc1)c1ccc(CN2CCOCC2)n1C.Cl.Cl (stereo not shown) [Example 6, [(4-Fluoro-phenyl)-(1-methyl-5-morpholin-4-ylmethyl-1H-pyrrol-2-yl)-methyl]-dimethyl-amine dihydrochloride] | 42% | 53% | 21% | 500 nM |  |  | 
7 | CCN(CC)Cc1ccc(C(c2ccccc2)N(C)C)n1C.Cl.Cl (stereo not shown) [Example 7, [5-(Dimethylamino-phenyl-methyl)-1-methyl-1H-pyrrol-2-ylmethyl]-diethyl-amine dihydrochloride] | 52% | 44% | 50% |  | 420 nM | 42% | 
8 | CCOC(=O)C(c1ccc(CN2CCCCC2)n1C)N1CCCCC1 (stereo not shown) [Example 8, (1-Methyl-5-piperidin-1-ylmethyl-1H-pyrrol-2-yl)-piperidin-1-yl-acetic acid ethyl ester drochloride] | 33% |  | 69% | 220 nM |  |  | 
9 | CCOC(=O)C(c1ccc(CN2CCCCC2)n1C)N1CCOCC1.Cl.Cl (stereo not shown) [Example 9, (1-Methyl-5-piperidin-1-ylmethyl-1H-pyrrol-2-yl)-morpholin-4-yl-acetic acid ethyl eastr dihydrochloride] |  | 26% |  |  |  |  | 
10 | CCOC(=O)C(c1ccc(CN(CC)CC)n1C)N1CCOCC1.Cl.Cl (stereo not shown) [Example 10, (5-Diethylaminomethyl-1-methyl-1H-pyrrol-2-yl)-morpholin-4-yl-acetic acid ethyl ester dihydrochloride] |  | 28% | 84% |  |  |  | 70 nM
11 | CCOC(=O)C(c1ccc(CN2CCOCC2)n1C)N1CCCC1.Cl.Cl (stereo not shown) [Example 13, (1-Methyl-5-morpholin-4-ylmethyl-1H-pyrrol-2-yl)-pyrrolidin-1-yl-acetic acid ethyl ester dihydrochloride] |  | 28% |  |  |  |  | 
